Like-named read-outs stand apart in the source and are kept apart here.

Data set [1] deals with human foreskin fibroblast (HFF). Kind of data set: Cytotoxicity by cell proliferation, HFF cells. It counts as cell-based. Particulars: read-out: IC50 for indicated cell line HFF. The method, then: (§1) The cytotoxicity of the novel trans-platinum compounds was assayed through the standard protocols of the NCI Developmental Therapeutics (HIV) and NIAID (Herpes Viruses) Screening Programs.
(§2) http://www.niaid.nih.gov/dmid/apdsame.html. IC50 is cytotoxic dose in cell carriers.
(§3) The cytotoxicity of several nucleobase compounds of the general formula SP-4-2-[PtX(L)(L′)(B)]^+ was assessed and the results are given in Table I. The cell lines employed were human foreskin fibroblast (HFF), Daudi, and CEM-SS, a T-cell line typically used to csrry snd maintain human imnmunodefficiency virus (HIV). The lC50 values for HFF and Dsudi cell lines were determined by cell proliferation as referenced above. The IC50 values for the CEM-SS cell line was determined by XTT colorimetric assays as referenced above.

Data set [2] concerns Daudi. Kind of data set: Cytotoxicity by cell proliferation, Daudi cells. The format is cell-based. The note with it: read-out: IC50 for indicated cell line Daudi. The method, then:
as §1, §2, §3

Data set [3] concerns CEM-SS, a T-cell line. Kind of data set: Cytotoxicity by XTT colorimetric assay, CEM-SS cells. It counts as cell-based. Particulars: read-out: IC50 for indicated cell line CEM-SS. How it is done:
as §1, §2, §3
In general terms: Tetrazolium dyes change colour on reduction, which living cells bring about.

Data set [4] in a line: Water-solubility compared with the parent compound. Particulars: statement in words, no values. The format is physicochemical.
For data set [5], the system named is L1210 Leukemia. Particulars: for in vivo antitumor activity: murine L1210 leukemia. The text has this:
b: %T/C is % average survival in days of treated animals/average survival in days of control animals. All tests performed as reported in references in a above. 50×3 refers to dose (mg/kg) and schedule (drug injection at 1,5,9 days after tumor inoculation).

Data set [6] deals with A 2780. The note with it: A 2780 cells.
Data set [7] has as its system L1210 Leukemia. Particulars: murine L1210 leukemia; J. Med. Chem. 32:2240; cited from earlier work.

Turning to `CCn1c[n+]([Pt-2]([NH2])([NH3+])[Cl])c2c(=O)[nH]c(N)nc21` (stereo not drawn) [Compound 1, trans-[PtCl(9-ethylguanine)(NH3)2]^+], the results for the IC50 in data set [1] and in data set [2] were 18.9 µM and 7.9 µM, respectively.

With `CCn1c[n+]([Pt-2]([NH2])([Cl])[n+]2ccsc2)c2c(=O)[nH]c(N)nc21` (centres unmarked) [Compound 2, SP-4-2-[PtCl(9-ethylguanine)(NH3)(thiazole)]^+], the IC50 – broadly, the midpoint of a concentration-inhibition curve – was 11.2 µM in data set [1], 47.3 µM in data set [3] (first CEM-SS column), 24.6 µM in data set [3] (second CEM-SS column) and 18.1 µM in data set [2].

Consider `CCn1c[n+]([Pt-2]([NH2])([Cl])[n+]2cccc3ccccc32)c2c(=O)[nH]c(N)nc21` (centres unmarked) [Compound 4], for which the half-inhibitory concentration (IC50) was found to be 25.9 µM in data set [1], 47.4 µM in data set [3] (first CEM-SS column), 31.7 µM in data set [3] (second CEM-SS column) and 0.93 µM in data set [2].

As for `CCn1c[n+]([Pt-2]([NH2])([Cl])[n+]2ccc3ccccc3c2)c2c(=O)[nH]c(N)nc21` (centres unmarked) [Compound 5, SP-4-2-[PtCl(9-ethylguanine)(NH3)(isoquinoline)]^+], the IC50 in data set [1] turned out to be 2.8 µM; in data set [2] it was 4.8 µM.

With `CCn1c[n+]([Pt-2]([Cl])([n+]2ccc(C)cc2)[n+]2ccc(C)cc2)c2c(=O)[nH]c(N)nc21` [Compound 6, trans-[PtCl(9-ethylguanine) (4-picoline)2]^+], the IC50 in data set [1] came to 21.7 µM; in data set [3] (first CEM-SS column), 1.9 µM; in data set [3] (second CEM-SS column) it was 2 µM; in data set [2], 0.92 µM. Moreover, the “water-solubility and bioavailability versus parent trans-[PtCl2(4-pic)2]” value in data set [4] was “significant water-solubility and bioavailability over the parent compound”.

With `Cn1ccc(N)[n+]([Pt-2]([NH2])([Cl])[n+]2cccc3ccccc32)c1=O` (centres unmarked) [Compound 9, SP-4-2-[PtCl(1-methylcytosine)(NH3)(quinoline)]^+], the IC50 in data set [1] was 38.7 µM; in data set [3] (first CEM-SS column), 50.4 µM; in data set [3] (second CEM-SS column), 33.2 µM; in data set [2], 14.1 µM.

In the case of `Cn1ccc(N)[n+]([Pt-2]([NH2])([Cl])[n+]2ccc3ccccc3c2)c1=O` (centres unmarked) [Compound 10, SP-4-2-[PtCl(1-methylcytosine)(NH3)(isoquinoline)]^+], the figures for the IC50 in data set [1] and in data set [2] were greater than 56.4 µM and 21.6 µM, respectively.

As to `[Cl][Pt][Cl].c1ccncc1.c1ccncc1` [trans-[PtCl2(pyridine)2], reference compound], the “L1210 Leukemia % T/C” value in data set [5] (50 × 2: 50 mg/kg, injected twice only) is 106 (50 × 2) %. In addition, the “in vivo antitumor activity” value in data set [5] is “no activity”. The “A 2780 IC50” value in data set [6] came to 0.2 µg/mL. Moreover, the “in vivo antitumor activity, previously reported” value in data set [7] is “totally inactive”.

For the compound “SP-4-2-[PtCl(1-methylcytosine)(NH3)(thiazole)] [Compound 8]”, in data set [1], the IC50 is greater than 52 µM.

As to “SP-4-2-[PtCl(9-ethylguanine) (NH3)(benzothiazole)]^+ [Compound 3]”, the IC50 in data set [1] is 11.2 µM; in data set [2], 9.8 µM.

As for “trans-[PtCl(1-methylcytosine)(NH3)2]^+ [Compound 7]”, the half-maximal inhibitory concentration (IC50) is greater than 45.2 µM in data set [1] and 15 µM in data set [2].

Turning to trans-[PtCl(Me2SO)(pyridine)2]^+, the “L1210 Leukemia % T/C” value in data set [5] (50 × 3: 50 mg/kg, injection at 1,5,9 days after tumor inoculation, T/C >150% indicative of activity) is recorded as 155 (50 × 3) %. Further, the “in vivo antitumor activity” value in data set [5] is given as “some antitumor activity”. In addition, in data set [6], the “A 2780 IC50” value is 0.3 µg/mL.

(Values after US6350740B1, “Transplatinum complexes as cytotoxic and anticancer agents” (Virginia Commonwealth University, priority 2000, dated 2002).)
